{"source": "the NIST ThermoML archive (doi:10.1021/acs.jced.8b00684)", "key": {"[1]": {"conditions": "100 kPa, Liquid, Falling or rolling sphere viscometry"}, "[2]": {"experiment": "xn = mol fraction of the nth substance listed", "conditions": "100 kPa, Liquid, Falling or rolling sphere viscometry, x2 = 0"}}, "note": "Numbers after ± are expanded uncertainties."}
{"smiles": "C[S+](C)[O-]", "note": "[dimethyl sulfoxide]", "values": [{"measurement": "viscosity", "setting": "[1]; 293.15 K", "value": "2.21 ± 0.09", "unit": "mPa·s"}, {"measurement": "viscosity", "setting": "[1]; 298.15 K", "value": "2.01 ± 0.08", "unit": "mPa·s"}, {"measurement": "viscosity", "setting": "[1]; 303.15 K", "value": "1.84 ± 0.07", "unit": "mPa·s"}, {"measurement": "viscosity", "setting": "[1]; 313.15 K", "value": "1.56 ± 0.06", "unit": "mPa·s"}, {"measurement": "viscosity", "setting": "[1]; 323.15 K", "value": "1.34 ± 0.05", "unit": "mPa·s"}, {"measurement": "viscosity", "setting": "[1]; 333.15 K", "value": "1.17 ± 0.05", "unit": "mPa·s"}, {"measurement": "viscosity", "setting": "[1]; 343.15 K", "value": "1.03 ± 0.04", "unit": "mPa·s"}, {"measurement": "viscosity", "setting": "[1]; 353.15 K", "value": "0.92 ± 0.04", "unit": "mPa·s"}]}
{"smiles": "CCCCCCn1cc[n+](C)c1.F[B-](F)(F)F", "note": "[1-hexyl-3-methylimidazolium tetrafluoroborate]", "values": [{"measurement": "viscosity", "setting": "[1]; 293.15 K", "value": "293 ± 20", "unit": "mPa·s"}, {"measurement": "viscosity", "setting": "[1]; 298.15 K", "value": "216 ± 13", "unit": "mPa·s"}, {"measurement": "viscosity", "setting": "[1]; 303.15 K", "value": "163 ± 9", "unit": "mPa·s"}, {"measurement": "viscosity", "setting": "[1]; 313.15 K", "value": "96.7 ± 4.3", "unit": "mPa·s"}, {"measurement": "viscosity", "setting": "[1]; 323.15 K", "value": "61.8 ± 2.5", "unit": "mPa·s"}, {"measurement": "viscosity", "setting": "[1]; 333.15 K", "value": "41.9 ± 1.7", "unit": "mPa·s"}, {"measurement": "viscosity", "setting": "[1]; 343.15 K", "value": "29.5 ± 1.2", "unit": "mPa·s"}, {"measurement": "viscosity", "setting": "[1]; 353.15 K", "value": "21.7 ± 0.9", "unit": "mPa·s"}]}
{"smiles": "C[S+](C)[O-]", "note": "[dimethyl sulfoxide] + CCCCCCn1cc[n+](C)c1.F[B-](F)(F)F", "values": [{"measurement": "viscosity", "setting": "[2]; 293.15 K", "value": "2.21 ± 0.09", "unit": "mPa·s"}, {"measurement": "viscosity", "setting": "[2]; 298.15 K", "value": "2.01 ± 0.08", "unit": "mPa·s"}, {"measurement": "viscosity", "setting": "[2]; 303.15 K", "value": "1.84 ± 0.07", "unit": "mPa·s"}, {"measurement": "viscosity", "setting": "[2]; 313.15 K", "value": "1.56 ± 0.06", "unit": "mPa·s"}, {"measurement": "viscosity", "setting": "[2]; 323.15 K", "value": "1.34 ± 0.05", "unit": "mPa·s"}, {"measurement": "viscosity", "setting": "[2]; 333.15 K", "value": "1.17 ± 0.05", "unit": "mPa·s"}, {"measurement": "viscosity", "setting": "[2]; 343.15 K", "value": "1.03 ± 0.04", "unit": "mPa·s"}, {"measurement": "viscosity", "setting": "[2]; 353.15 K", "value": "0.92 ± 0.04", "unit": "mPa·s"}]}
{"smiles": "CC#N", "note": "[acetonitrile] + CCCCCCn1cc[n+](C)c1.F[B-](F)(F)F", "values": [{"measurement": "viscosity", "setting": "[2]; 293.15 K", "value": "0.39 ± 0.02", "unit": "mPa·s"}, {"measurement": "viscosity", "setting": "[2]; 298.15 K", "value": "0.37 ± 0.02", "unit": "mPa·s"}, {"measurement": "viscosity", "setting": "[2]; 303.15 K", "value": "0.35 ± 0.02", "unit": "mPa·s"}, {"measurement": "viscosity", "setting": "[2]; 313.15 K", "value": "0.33 ± 0.01", "unit": "mPa·s"}, {"measurement": "viscosity", "setting": "[2]; 323.15 K", "value": "0.3 ± 0.01", "unit": "mPa·s"}, {"measurement": "viscosity", "setting": "[2]; 333.15 K", "value": "0.28 ± 0.01", "unit": "mPa·s"}, {"measurement": "viscosity", "setting": "[2]; 343.15 K", "value": "0.26 ± 0.01", "unit": "mPa·s"}]}
{"smiles": "CC#N", "note": "[acetonitrile]", "values": [{"measurement": "viscosity", "setting": "[1]; 293.15 K", "value": "0.39 ± 0.02", "unit": "mPa·s"}, {"measurement": "viscosity", "setting": "[1]; 298.15 K", "value": "0.37 ± 0.02", "unit": "mPa·s"}, {"measurement": "viscosity", "setting": "[1]; 303.15 K", "value": "0.35 ± 0.02", "unit": "mPa·s"}, {"measurement": "viscosity", "setting": "[1]; 313.15 K", "value": "0.33 ± 0.01", "unit": "mPa·s"}, {"measurement": "viscosity", "setting": "[1]; 323.15 K", "value": "0.3 ± 0.01", "unit": "mPa·s"}, {"measurement": "viscosity", "setting": "[1]; 333.15 K", "value": "0.28 ± 0.01", "unit": "mPa·s"}, {"measurement": "viscosity", "setting": "[1]; 343.15 K", "value": "0.26 ± 0.01", "unit": "mPa·s"}]}
